Test results from patent publication US12371434B2, “MLL1 inhibitors and anti-cancer agents” (NOVARTIS AG, priority 2020, dated 2025).

Assays:
[1] = molecular target: wild type MLL1 four-member complex (MLL1-4C) (Homo sapiens, UniProt Q03164); assay: MLL1 LC-MS assay; assay type: biochemical; conditions: 30 nM MLL1-4C, 2.5 μM SAM, 10 μM H3K4me0; SAH production by LC-MS/MS; read-out: MLL1 LCMS
Protocol: The compounds of the present disclosure were serially and separately diluted 3-fold in DMSO to obtain a total of eight or twelve concentrations. Then the test compounds at each concentration (120 nL of each) were transferred by Mosquito into white Proxiplate plus 384-well microplate (PerkinElmer). Solutions (6 μL) of 60 nM wild type MLL1 four-member complex (MLL1-4C) and 5 μM SAM in the reaction buffer (20 mM Tris-HCl, pH8.0, 0.01% Tween 20, 1 mM DTT, 10 mM MgCl2, 0.01% BSA) were added to the wells that were then incubated with the test compound for 20 min. A 6 μL solution of 20 μM of the peptide substrate H3K4me0 (histone H3[1-21]-Biotin) in the reaction buffer was added to initiate each reaction. The final components in the reaction solution include 30 nM MLL1-4C, 2.5 μM SAM, and 10 μM H3K4me0 with varying concentration of the compounds. A positive control consisted of 30 nM MLL1-4C, 2.5 μM SAM, and 10 μM substrate in the absence of the test compound, and a negative control consisted of 2.5 μM SAM, and 10 μM substrate only. Each reaction was incubated at rt for 120 min, then stopped by addition of 3 μL per of quench solution (2.5% TFA with 320 nM d4-SAH). The reaction mixture was centrifuged (Eppendorf centrifuge 5810, Rotor A-4-62) for 2 min at 2000 rmp. The SAH production from the enzymatic assays were monitored by LC-MS/MS on an API 4000 triple quadrupole mass spec with TurboIon Spray (Applied Biosystem) coupled with Prominenece UFLC(Shimazu). The level of SAH production were then normalized based on the values coming from the positive and negative controls to give percent enzyme activities. The data were then fit to a dose response equation using the program Helios (Novartis) to get the IC50 values of the test compounds.

[2] = system: H3K4me3 in MV4-11 cells; assay: MV4-11 H3K4Me3 cellular ELISA assay; assay type: cell-based; conditions: Homo sapiens, 48 hours, H3K4me3 signal normalized to total H3
Protocol: MV4-11H3K4Me3 Cellular ELISA Assay
MV4-11 (ATCC® CRL-9591™) was cultured with RPMI1640 medium (Thermo Fisher Scientific, cat #11875) supplemented with 10% FBS (Thermo Fisher Scientific, cat #10099141) and 50 U/ml Penicillin-Streptomycin (Thermo Fisher Scientific, cat #10378016) in humidified incubator at 37° C., 5% CO2.
200 nL compounds dissolved in DMSO were serially diluted at 1:3 ratio for 12 points starting from 10 mM and dispensed into each wells of cell culture plates (PDL-coated ViewPlate-384 Black, FTC, PerkinElmer, #6007710). 3,750 MV4-11 cells in 40 μL culture medium were seeded into each well and treated with desired concentration for 48 hours. After treatment, wash cells with cold phosphate based buffer (PBS, pH 7.4) and aspirate the remaining PBS buffer. Crude histone lysate was extracted by 40 μL 0.5M HCl for 1 hour in 4° C. following neutralization by adding 32 μL neutralization buffer (0.5M Sodium phosphate dibasic, pH˜12.5, 1.25 mM Dithiothreitol, Promega #V3151, Protease Inhibitor Cocktail, Sigma #8340) for each well. 5 μL and 20 μL of histone lysate was loaded to ELISA plate (384 Well Plates, PE HB, White, 6005620) for detection of total H3 and H3K4me3, respectively. Shake the plates gently in 4° C. for overnight. After histone binding, plates were washed with 80 μL PBS/T (PBS with 0.05% Tween-20) and blocked with 50 μL 3% BSA diluted in PBS/T per well for 1 hour. Incubate wells with primary antibody for 1 hour at room temperature using anti-H3K4me3 (CST #9727) and anti-total H3 (CST #9715) diluted 1:2000 in 3% BSA. Plates were then washed with PBS/T for 3 times and incubated with horseradish peroxidase (HRP) conjugated secondary antibody (CST #7074, 1:5000) for 1 hour at room temperature. The abundance of H3K4me3 and total H3 were measured by ECL substrates chemiluminesce (Pierce, #34080) on a plate reader (PerkinElmer EnVison 2104 Mutilable Reader). Percentage inhibition was calculated against DMSO control after normalization of H3K4me3 signal to H3 signal for individual samples. The data were then fit to a dose response curve using GraphPad Prism for IC50 calculation.

[3] = molecular target: wild type MLL1 five-member complex (MLL1-5C) (Homo sapiens, UniProt Q03164); assay: MLL1 Flashplate assay; assay type: biochemical; conditions: 2.5 nM MLL1-5C, 0.5 μM 3H-SAM, 1 μM H3K4me0; read-out: MLL1 flash plate
Protocol: MLL1 Flashplate Assay To assess the compound potency in MLL1 Flashplate assay, compounds were serially diluted 3-fold in DMSO to obtain a total of twelve concentrations. Then the test compounds at each concentration (250 nL of each) were transferred by Mosquito into Corning #3675 384-well plate. Solutions (15 μL) of 4.2 nM wild type MLL1 five-member complex (MLL1-5C) in the assay buffer (20 mM Tris-HCl, pH8.0, 0.01% Tween 20, 1 mM DTT, 0.01% BSA) were added to the wells. A 10 μL solution of 2.5 μM of the peptide substrate H3K4me0 (histone H3[1-21]-Biotin) and 1.25 μM ^3H-SAM in the reaction buffer was then added to initiate each reaction. The final components in the reaction solution include 2.5 nM MLL1-5C, 0.5 μM ^3H-SAM, and 1 μM H3K4me0 with varying concentration of the compounds. A positive control consisted of 2.5 nM MLL1-5C, 0.5 μM ^3H-SAM, and 1 μM substrate in the absence of the test compound, and a negative control consisted of 0.5 μM ^3H-SAM, and 1 μM substrate only. Each reaction was incubated at rt for 90 min, then stopped by addition of 5 μL per of quench solution (0.5 mM SAM in assay buffer). 25 μL of each reaction solution was transferred to FlashPlate streptavidin 384-well microplate (PerkinElmer). After at least 1 h incubation at rt, the wells were washed three times with 0.1% Tween-20 in dH2O using the BioTek plate washer. The plates were then read in MicroBeta (PerkinElmer). The radioactive readouts were then normalized based on the values coming from the positive and negative controls to give percent enzyme activities. The data were then fit to a dose response equation using the program Helios to get the IC50 values of the test compounds.

| SMILES | IC50 [1] | IC50 [2] | IC50 [3] |
| --- | --- | --- | --- |
| COC[C@H](N)CCCOc1cccc(Br)c1Cc1cnn2c(N)ncnc12 [Example 10, (R)-8-(2-((4-amino-5-methoxypentyl)oxy)-6-bromobenzyl)pyrazolo[1,5-a][1,3,5]triazin-4-amine] | > 0.1 µM |  |  |
| CCc1cc(Cl)cc(OCC[C@H](N)COC)c1Cn1cnc2c(N)ncnc21 [Example 4, (S)-9-(2-(3-amino-4-methoxybutoxy)-4-chloro-6-ethylbenzyl)-9H-purin-6-amine] | > 0.1 µM | > 3 µM |  |
| CNC(=O)[C@H](N)CCCOc1ccc(Cl)c(Cl)c1Cn1cnc2c(N)ncnc21 [Example 40, (R)-2-amino-5-(2-((6-amino-9H-purin-9-yl)methyl)-3,4-dichlorophenoxy)-N-methylpentanamide] | > 0.1 µM |  |  |
| COC[C@H](N)CCCOc1ccc(Cl)c(Cl)c1Cn1cnc2c(N)ncc(Cl)c21 [Example 18, (R)-1-(6-((4-amino-5-methoxypentyl)oxy)-2,3-dichlorobenzyl)-7-chloro-1H-imidazo[4,5-c]pyridin-4-amine] | 0.05 to 0.1 µM | > 3 µM |  |
| NC(=O)[C@H](N)CCCOc1cc(Cl)cc(Cl)c1Cn1cnc2c(N)ncc(Cl)c21 [Example 38, (R)-2-amino-5-(2-((4-amino-7-chloro-1H-imidazo[4,5-c]pyridin-1-yl)methyl)-3,5-dichlorophenoxy)pentanamide] | > 0.1 µM |  |  |
| COC[C@H](N)CCOc1cc(Cl)cc(Br)c1Cn1cnc2c(N)ncnc21 [Example 2, (R)-9-(2-(3-amino-4-methoxybutoxy)-6-bromo-4-chlorobenzyl)-9H-purin-6-amine] | > 0.1 µM |  | > 0.1 µM |
| Nc1ncnc2c1ncn2Cc1c(OCC[C@H](N)C(=O)O)ccc(F)c1F [Example 25, O-(2-((6-amino-9H-purin-9-yl)methyl)-3,4-difluorophenyl)-L-homoserine] | > 0.1 µM |  |  |
| CN[C@H](CCCOc1cc(Cl)cc(Br)c1Cn1cnc2c(N)ncnc21)COC [Example 22, (R)-9-(2-bromo-4-chloro-6-((5-methoxy-4-(methylamino)pentyl)oxy)benzyl)-9H-purin-6-amine] | > 0.1 µM |  | > 0.1 µM |
| COC[C@H](N)CCCOc1cc(Cl)ccc1Cc1cnn2c(N)ncnc12 [Example 13, (R)-8-(2-((4-amino-5-methoxypentyl)oxy)-4-chlorobenzyl)pyrazolo[1,5-a][1,3,5]triazin-4-amine] | > 0.1 µM |  |  |
| COC[C@H](N)CCCOc1ccccc1Cc1cnc2c(N)ncnn12 [Example 7, (R)-7-(2-((4-amino-5-methoxypentyl)oxy)benzyl)imidazo[2,1-f][1,2,4]triazin-4-amine] | > 0.1 µM |  |  |
| COC[C@@H](N)CCOc1cc(Cl)cc(C)c1Cn1cnc2c(N)ncnc21 [Example 3, (S)-9-(2-(3-amino-4-methoxybutoxy)-4-chloro-6-methylbenzyl)-9H-purin-6-amine] | > 0.1 µM | > 3 µM |  |
| COC(=O)[C@H](N)CCCOc1ccc(Cl)c(Cl)c1Cn1cnc2c(N)ncnc21 [Example 33, methyl (R)-2-amino-5-(2-((6-amino-9H-purin-9-yl)methyl)-3,4-dichlorophenoxy)pentanoate] | < 0.05 µM |  |  |
| COC[C@H](N)CCCOc1ccccc1Cc1cnn2c(N)ncnc12 [Example 12, (R)-8-(2-((4-amino-5-methoxypentyl)oxy)benzyl)pyrazolo[1,5-a][1,3,5]triazin-4-amine] | > 0.1 µM |  |  |
| Nc1ncnn2c(Cc3c(OCCC[C@@H](N)C(=O)O)ccc(Cl)c3Cl)cnc12 [Example 24, (R)-2-amino-5-(2-((4-aminoimidazo[2,1-f][1,2,4]triazin-7-yl)methyl)-3,4-dichlorophenoxy) pentanoic acid] | 0.05 to 0.1 µM | > 3 µM |  |
| CC(C)c1nc(N)c2ncn(Cc3c(Cl)cc(Cl)cc3OCCC[C@@H](N)C(=O)O)c2n1 [Example 26, (R)-2-amino-5-(2-((6-amino-2-isopropyl-9H-purin-9-yl)methyl)-3,5-dichlorophenoxy)pentanoic acid] | > 0.1 µM |  |  |
| COC[C@H](N)CCCOc1c(Cl)cccc1Cc1cnn2c(N)ncnc12 [Example 14, (R)-8-(2-((4-amino-5-methoxypentyl)oxy)-3-chlorobenzyl)pyrazolo[1,5-a][1,3,5]triazin-4-amine] | > 0.1 µM |  |  |
| COC[C@H](N)CCCOc1cccc(Cl)c1Cc1cnn2c(N)ncnc12 [Example 11, (R)-8-(2-((4-amino-5-methoxypentyl)oxy)-6-chlorobenzyl)pyrazolo[1,5-a][1,3,5]triazin-4-amine] | > 0.1 µM | > 3 µM |  |
| NCCCCOc1cc(Cl)cc(Cl)c1Cn1cnc2c(N)nccc21 [Example 46, 1-(2-(4-aminobutoxy)-4,6-dichlorobenzyl)-1H-imidazo[4,5-c]pyridin-4-amine] | > 0.1 µM |  |  |
| COC[C@H](N)CCCOc1cccc(Cl)c1Cc1cnc2c(N)ncnn12 [Example 6, (R)-7-(2-((4-amino-5-methoxypentyl)oxy)-6-chlorobenzyl)imidazo[2,1-f][1,2,4]triazin-4-amine] | > 0.1 µM |  |  |
| COC[C@H](N)CCCOc1cc(Cl)cc(Br)c1Cc1cnn2c(N)ncnc12 [Example 9, (R)-8-(2-((4-amino-5-methoxypentyl)oxy)-6-bromo-4-chlorobenzyl)pyrazolo[1,5-a][1,3,5] triazin-4-amine] | > 0.1 µM | > 3 µM |  |
| Nc1ncc(Cl)c2c1ncn2Cc1c(Cl)cc(Cl)cc1OCCCC(N)C(=O)O (stereo not shown) [Example 28, 2-amino-5-(2-((4-amino-7-chloro-1H-imidazo[4,5-c]pyridin-1-yl)methyl)-3,5-dichlorophenoxy) pentanoic acid] | > 0.1 µM |  |  |
| NC(=O)[C@H](N)CCCOc1ccc(Cl)c(Cl)c1Cc1cnc2c(N)ncnn12 [Example 35, (R)-2-amino-5-(2-((4-aminoimidazo[2,1-f][1,2,4]triazin-7-yl)methyl)-3,4-dichlorophenoxy)pentanamide] | > 0.1 µM | > 3 µM |  |
